Marks after values point to notes of the source that are not given here.
Experiments:
[1] = tested on: human prostate cell LNCaP; experiment: Human prostate cell LNCaP transplanted tumor in nude mice; format: in vivo, BALB/C nude mice
Description: A human prostate cell LNCaP model transplanted into nude mice was used in the experiment to investigate the anti-tumor effect of test compounds.
(§1) Preparation: The compound was prepared as the injection at the desired concentration with sterile normal saline, prior to administration.
(§2) Animal strain: BALB/C nude mice (SPF grade), weight: 19-21 g, gender: male.
(§3) Number of animals in each treatment group: 8; number of animals in the control group: >12.
(§4) The tumor blocks of human prostate cell LNCaP with good growth were cut into uniform small pieces of 3 mm under sterile conditions, and then subcutaneously inoculated into the right armpit of each mouse with a cannula. The mice were divided into 9 groups, 8 mice for each treatment group, while >12 mice were included in the control group,
(§5) 14 days after inoculation, the average volume of the tumor block was about 100 mm^3. The animals were regrouped based on the size of the tumor, and the animals with tumors that were too large and too small were sifted out, For each group, the average volume of tumors was basically the same, and then the mice were initially treated with test compounds. The mice were intraperitoneally injected once a day for 14 days, at a dosage of 0.2 mL/20 g body weight; the mice in the control group were given the same volume of sterile normal saline. From the 14th day of inoculation, the long diameter a (mm) of the tumor, together with the perpendicular short diameter b (mm), was measured using a digital electronic caliper, twice a week. The calculation formula of tumor volume is: TV=ab^2/2, and the formula for calculating the relative tumor volume is: RTV=Vt/Vb, wherein Vo denotes the tumor volume measured when the mice were divided into groups (i.e. d1), and Vt denotes the tumor volume from each measurement.
(§6) The result determination is based on the following formula: […]

[2] = tested on: human renal cell carcinoma AGHN; experiment: Human renal cell carcinoma AGHN transplanted tumor in nude mice; format: in vivo, BALB/C nude mice
Description: A human renal cell carcinoma AGHN model transplanted into nude mice was used in the experiment to investigate the anti-tumor effect of test compounds. […] AGHN was measured.
as §1
Animal strain: BALB/C, nude mice (SPF grade), weight: 19-21 g, gender: male. Number of animals in each treatment group: 8; number of animals in the control group: >12.
as §4, with “human renal” for “human prostate”, “cell carcinoma AGHN” for “cell LNCaP”, “control group.” for “control group,”
as §5, with “mm^3,” for “mm^3.”, “out.” for “out,”, “RTV=Vt/Vo,” for “RTV=Vt/Vb,”
as §6

[3] = tested on: nonfusion human umbilical vein endothelial cells (HUVEC); experiment: TMT quantitative proteomics on nonfusion HUVEC; format: cell-based; settings: 10 μM; for Differentially expressed proteins: more than 1.5 times or less than 0.67 times vs control; for Down-regulation / Up-regulation: number of proteins
Description: Nonfusion human umbilical vein endothelial cells (HUVEC) were used to simulate new tumor blood vessels, while confluent HUVECs were used to simulate normal blood vessels, to construct experimental models. Two different HUVECs were treated with the compound at the same dosage of 10 μM, to simulate the fusion cell state, and proteome samples were prepared. After preparation of peptide segments, the segments were labelled with TMT, and a quantitative proteomics analysis was carried out. The efficiency of TMT labeling was higher than 99.4%, and a total of 28372 peptide segments from 4934 proteins were characterized using a strict 1% FDR limit. Among them, 4909 quantifiable proteins were identified, indicating reliable quality. The nonfusion treatment groups and the fusion treatment groups were compared with their respective control groups, and the control group was used as a reference, with a significant difference of more than 1.5 times or less than 0.67 times as the protein score standard.
The total cell proteins of the samples in nonfusion cell groups and fusion cell groups were extracted separately, and 2 μg of protein samples were subjected to quality analysis, The quantitative proteomics experiments were carried out, and the protein concentration assay was performed by quantitative grayscale measurement.
Data analysis: The human protein database (Scientific name: Homo sapiens, 9606) was downloaded from UniProt, MaxQuant (v 1.5.5.1) search engine was used to search for the database. A total of 4934 proteins (4909 quantitative proteins) and 28372 peptide segments were identified by TMT quantitative proteomics experiments, with a labeling efficiency of more than 99%, and the complete digestion occupied 86.3%.

[4] = tested on: human gastric cancer MGC803; experiment: Human gastric cancer MGC803 transplanted tumor in nude mice; format: in vivo, BALB/C nude mice; settings: MGC803, 200 mg/kg ip × 14
Description: A human gastric cancer MGC803 model transplanted into nude mice was used in the experiment to investigate the anti-tumor effect of test compounds.
as §1, §2, §3
as §4, with “human gastric cancer MGC803” for “human prostate cell LNCaP”, “cannula. These” for “cannula. The”, “while more than 12” for “while >12”, “control group.” for “control group,”
as §5, with “sifted out.” for “sifted out,”, “body weight.” for “body weight; the mice in the control group were given the same volume of sterile normal saline.”, “volume is RTV=Vt/Vo,” for “volume is: RTV=Vt/Vb,”, “into groups(i.e.” for “into groups (i.e.”, “Vt is” for “Vt denotes”
as §6

[5] = 200 mg/kg ip × 14, listed as compound 4, 200 mg/kg

Compound	RTV (d 18) ([1]; 200 mg/kg ip × 14)	Tumor inhibitory rate % ([1]; 200 mg/kg ip × 14)	RTV (d 18) ([2]; 200 mg/kg ip × 14)	Tumor inhibitory rate % ([2]; 200 mg/kg ip × 14)	Differentially expressed proteins [3]	Down-regulation [3]	Up-regulation [3]	RTV (d 18) [4]	Tumor inhibitory rate % [4]	Tumor inhibitory rate % ([1]; 200 mg/kg ip × 14, 200 mg/kg)	Tumor inhibitory rate % [1, 5]	Tumor inhibitory rate % ([2]; 200 mg/kg ip × 14, 200 mg/kg)	Tumor inhibitory rate % [2, 5]	Tumor inhibitory rate % ([4]; listed as compound 6)
COc1ccc(/C=C(/C(=O)O)c2cc(OC)c(OC)c(OC)c2)c(O)c1O [Compound 1, (E)-3-(2,3-dihydroxy-4-methoxyphenyl)-2-(3,4,5-trimethoxylphenyl)acrylic acid]	4.92 ± 0.82	56.27^## %	6.31 ± 0.91	54.24^## %	323	296	7	5.87 ± 0.63	49.05^## %	–	–	–	–	–
COc1cc(/C=C(/C(=O)O)c2cc(OC)c(OC)c(OC)c2)cc(OC)c1 [Compound 3, (E)-3-(3,5-dimethoxyphenyl)-2-(3,4,5-trimethoxyphenyl)acrylic acid]	4.77 ± 0.71	60.87^## %	5.47 ± 0.82	60.33^# %	318	312	6	4.79 ± 0.54	58.42^## %	–	–	–	–	–
COc1ccc(/C=C(/C(=O)O)c2cc(OC)c(OC)c(OC)c2)cc1F [Compound 4, (E)-3-(3-fluoro-4-methoxyphenyl)-2-(3,4,5-trimethoxyphenyl)acrylic acid]	3.73 ± 0.60	–	4.31 ± 0.58	–	307	302	5	–	–	69.40%	best inhibitory effect on prostate cancer	68.75%	best inhibitory effect on renal cell carcinoma	–
COc1ccc(/C=C(/C(=O)O)c2cc(OC)c(OC)c(OC)c2)cc1O [Compound 6, (E)-3-(3-hydroxy-4-methoxyphenyl)-2-(3,4,5-trimethoxyphenyl)acrylic acid]	4.27 ± 0.92	64.97^# %	6.53 ± 0.85	52.64^## %	312	307	5	3.43 ± 0.51	70.23%	–	–	–	–	best inhibitory effect on gastric cancer
COc1cc(/C(=C\c2cc(O)c(OC)c(F)c2)C(=O)O)cc(OC)c1OC [Compound 8, (E)-3-(5-fluoro-3-hydroxy-4-methoxyphenyl)-2-(3,4,5-trimethoxyphenyl)acrylic acid]	6.72 ± 0.85	44.87^## %	6.22 ± 0.63	54.89^## %	317	311	6	4.59 ± 0.47	60.16^## %	–	–	–	–	–
COc1ccc(/C=C(/C(=O)O)c2cc(OC)c(OC)c(OC)c2)c(F)c1O [Compound 9, (E)-3-(2-fluoro-3-hydroxy-4-methoxyphenyl)-2-(3,4,5-trimethoxyphenyl)acrylic acid]	–	–	5.12 ± 0.77	62.87^# %	296	291	5	–	–	–	–	–	–	–
COc1cc(/C=C(/C(=O)[O-])c2cc(OC)c(OC)c(OC)c2)cc(OC)c1F.[K+] [Compound 10]	4.55 ± 0.81	62.67^# %	–	–	315	309	6	4.21 ± 0.58	63.45^# %	–	–	–	–	–
COc1cc(/C(=C\c2cc(O)c(OC)c(O)c2)C(=O)O)cc(OC)c1OC [Compound 11, (E)-3-(3,5-dihydroxy-4-methoxyphenyl)-2-(3,4,5-trimethoxyphenyl)acrylic acid]	–	–	–	–	317	306	11	4.72 ± 0.61	59.03^## %	–	–	–	–	–

Reference: patent US20240130988A1, “Use of stilbene compounds in the preparation of anti-tumor drugs” (Guangzhou AnHao Pharmaceutical Technology CO., LTD., priority 2022, published 2024)
